“Also recorded” adds a separate entry of the source. Where two headings read alike, the source gives them in different places.
Experiments:
[1] = Partitioning coefficient of Rose Bengal, saline/1-octanol, effect of electrolyte concentration; settings: 0.5 mg/mL RB, approx. 1 day; for Kp: Partitioning coefficient (Kp)
From the text: After mixing, the agent was allowed to partition for approximately 1 day. Based on absorbance measurements at 550 nm for the aqueous phase and 564 nm for the organic phase, the percentage of agent in each phase was obtained.

[2] = Critical solubility of Rose Bengal in saline (cloudiness, absorbance at 1000 nm); type: physicochemical
Experimental: Solutions of RB at different concentrations were prepared at different sodium chloride concentrations. Saline 0.9% USP sodium chloride solution from Hospira, having a pH of 5.5, was used as a stock solution. Solutions having different sodium chloride concentrations were obtained by the addition of calculated amounts of sodium chloride.
The prepared RB/sodium chloride solutions were shaken for 1 hour and absorbance measurements were taken at 1000 nm to determine cloudiness. 1000 nm was chosen as this is in the near infra red where RB has negligible absorbance. Solution cloudiness was difficult to detect visually due to the very dark red color.
The following solutions were evaluated: • 1. 20% RB in saline concentrations of 1.0%, 1.5%, 1.6%, 1.7%, 1.8%, 1.9%, 2.0%, 2.5%, 2.6%, 2.7% and 2.9%; • 2. 15% RB in saline concentrations of […]; • 3. 10% RB in saline concentrations of 2.0%, 2.5%, 3.0% and 3.2%; and • 4. 40%, 45%, 50%, 55% and 60% solutions of RB in 0.9% saline.

[3] = test system: A375 human melanoma xenograft tumors; settings: for #CR + #PR/SD (%): number (percent); for MST ± SEM (mean survival time to 2.0 g tumor): single injection
Experimental: The effects of a single IL injection of RB into A375 human melanoma xenograft tumors growing in nude mice were evaluated.
Chemoablation studies were conducted using female nu/nu mice (Harlan), 6-9 weeks of age and approximately 20 g at study Day 1.
Each mouse in Chemoablation study groups received a single subcutaneous implantation of the A375 melanoma tumor line. This consisted of implantation of either (1) a 1 mm^3 fragment of tissue in the flank or (2) subcutaneous injection of 100 μL of an A375 cell suspension into the flank. Treatment was initiated when the implanted tumor reached a size of approximately 70 mg (where tumor weight, in mg, was estimated using the formula (w^2×l)/2 in which w is width, and l is length in mm of the tumor).
RB (Aldrich product No. W1843) in isotonic saline; concentrations of 0.1% RB, 1%, RB, 1%, RB, 6% RB and 10% RB (w/v) was studied. Saline was used for the injection control group.
Treatment Plan: Mice were divided into treatment groups on study Day 1. RB treatment groups received a single IL injection of 0.1 mL RB in saline; the injection control group received a single IL injection of 0.1 mL saline. Growth control and sham treatment groups received no injection. All dosing was performed on Study Day 1. Follow up examination of the mice was conducted at regular intervals, and the test terminated on either Study day 65 or Study Day 85.
Each animal was euthanized when its A375 neoplasm reached a size of 2.0 g.
Treatment was assessed for occurrence of complete tumor regression (CR), partial tumor regression (PR) or stable disease (SD). The duration of CR, PR, or SD response was recorded throughout each study.
The Log-Rank test was used to determine the statistical significance of any difference in survival experienced between treatment and control groups. […] SigmaStat 3.0 (SPSS Inc) was used for all statistical analysis. Graphs were prepared using sigmaStat 3.0 or sigma Plot 2000 (SPSS Inc.) ver 6.00.

[4] = Local tolerance, single subcutaneous injection into normal tissue
Experimental: The local tolerance study was conducted using female Crl:SKH-1-hrBR hairless mice (Charles river), at least 6 weeks of age and 19-27 g at study Day 1.
All dosing was performed on Study Day 1. Follow-up examination of mice was conducted at regular intervals and the test terminated on either day 4 (3 animal from each group) or Day 15 (the remaining three animals).
Clinical observations were recorded daily (including dermal scoring using the Draize scoring system). Upon sacrifice, animals were subjected to a comprehensive necroscopy. Tissue samples from the injection site (and surrounding tissue) were obtained and examined histologically.

MCF-7 [ER−] tumors = test: Tumor response to IL 10% RB in saline, report 020110.01B; type: in vivo, BALB/c Nude Mice; settings: 10% RB IL 25-50 μL/tumor Qd × 1; within 21 days; 4/group
T-47D [ER−] tumors = test: as above; type: in vivo, BALB/c Nude Mice; settings: 10% RB IL 25-50 μL/tumor Qd × 1; long passage T-47D [ER−]; 4/group
[5] = test system: spontaneous breast tumors; test: Tumor response to IL 10% RB in saline, report 020626.01C; type: in vivo, Neu+/+ x (1988A2Kb x Neu+/+) mice; settings: 10% RB IL 50 μL/tumor Qd × 1
Murine Hepa I-6 tumors = test: Tumor response to IL 10% RB in saline, report 020111.01B; type: in vivo, BALB/c Nude Mice; settings: IL 30-50 μL/tumor Qd × 1; 8/group
[6] = cited from earlier work

**Q.** With `O=C([O-])c1c(Cl)c(Cl)c(Cl)c(Cl)c1-c1c2cc(I)c(=O)c(I)c-2oc2c(I)c([O-])c(I)cc12.[Na+].[Na+]` [RB, 4,5,6,7-Tetrachloro-2′,4′,5′,7′-tetraiodofluorescein] as the molecule, how does the “% Partitioning in Octanol” value ([1]; 0.00% saline) read?
**A.** 75.79 ± 1.75%

**Q.** And the “% Partitioning in Octanol” value ([1]; 0.50% saline)?
**A.** 95.13 ± 1.43%

**Q.** What about the “% Partitioning in Octanol” value ([1]; 0.90% saline) of the same molecule?
**A.** 98.52 ± 0.26%

**Q.** And the “% Partitioning in Octanol” value ([1]; 2.50% saline)?
**A.** 99.35 ± 0.28%

**Q.** And the Kp ([1]; 0.00% saline)?
**A.** 3.14 ± 0.29

**Q.** What about the Kp ([1]; 0.50% saline) of the same molecule?
**A.** 20.8 ± 6.77

**Q.** What about the Kp ([1]; 0.90% saline) of the same molecule?
**A.** 68.2 ± 4.43

**Q.** And the Kp ([1]; 2.50% saline)?
**A.** 215 ± 105

**Q.** And the Kp ([1]; […] saline)?
**A.** 44.2 ± 5.52

**Q.** What about the “% Partitioning in Octanol” value ([1]; […] saline) of the same molecule?
**A.** 97.77 ± 0.25%

**Q.** What about the solution stability ([2]; RB solutions within the therapeutic amounts) of the same molecule?
**A.** stable

**Q.** What about the “RB concentration that can be achieved” value ([2]; in 0.9% saline) of the same molecule?
**A.** up to 45%

**Q.** What about the tumor growth response ([3]; 0.1% RB (Group C)) of the same molecule?
**A.** qualitatively and statistically equivalent to the control groups

**Q.** What about the “#CR” value ([3]; 0.1% RB, 5 mg/kg, IL, N=5) of the same molecule?
**A.** 0

**Q.** And the “#PR/SD” value ([3]; 0.1% RB, 5 mg/kg, IL, N=5)?
**A.** 0

**Q.** What about the “#CR + #PR/SD (%)” value ([3]; 0.1% RB, 5 mg/kg, IL, N=5) of the same molecule?
**A.** 0 (0)

**Q.** And the “MST ± SEM (mean survival time to 2.0 g tumor)” value (“MST ± SEM” below) ([3]; 0.1% RB, 5 mg/kg, IL, N=5)?
**A.** 27.0 ± 3.0 (5) days

**Q.** And the “clinical response of tumors” value ([3]; 1% RB and higher, large fraction of tumors)?
**A.** localized tumor necrosis with rapid eschar formation

**Q.** And the “#CR” value ([3]; 1% RB, 50 mg/kg, IL, N=12)?
**A.** 1

**Q.** What about the “#PR/SD” value ([3]; 1% RB, 50 mg/kg, IL, N=12) of the same molecule?
**A.** 1

**Q.** And the “#CR + #PR/SD (%)” value ([3]; 1% RB, 50 mg/kg, IL, N=12)?
**A.** 2 (17)

**Q.** And the “MST ± SEM” value ([3]; 1% RB, 50 mg/kg, IL, N=12)?
**A.** 33.1 ± 4.5 (10) days

**Q.** What about the “composite response (damage+necrosis/2) and mean severity of necrosis of tumor tissue” value ([3]; 1%, 3% and 6% RB treatment groups) of the same molecule?
**A.** elevated

**Q.** What about the “#CR” value ([3]; 3% RB, 150 mg/kg, IL, N=17) of the same molecule?
**A.** 3

**Q.** What about the “#PR/SD” value ([3]; 3% RB, 150 mg/kg, IL, N=17) of the same molecule?
**A.** 3

**Q.** And the “#CR + #PR/SD (%)” value ([3]; 3% RB, 150 mg/kg, IL, N=17)?
**A.** 6 (35)

**Q.** And the “MST ± SEM” value ([3]; 3% RB, 150 mg/kg, IL, N=17)?
**A.** 50.0 ± 7.0 (11) days

**Q.** What about the “survival versus growth controls” value ([3]; 6% RB (N=6), increased survival) of the same molecule?
**A.** not statistically different

**Q.** And the “#CR” value ([3]; 6% RB, 300 mg/kg, IL, N=6)?
**A.** 1

**Q.** And the “#PR/SD” value ([3]; 6% RB, 300 mg/kg, IL, N=6)?
**A.** 0

**Q.** And the “#CR + #PR/SD (%)” value ([3]; 6% RB, 300 mg/kg, IL, N=6)?
**A.** 1 (17)

**Q.** And the “MST ± SEM” value ([3]; 6% RB, 300 mg/kg, IL, N=6)?
**A.** 35.4 ± 6.6 (5) days

**Q.** What about the “#CR” value ([3]; 10% RB, 500 mg/kg, IL, N=5) of the same molecule?
**A.** 1

**Q.** What about the “#PR/SD” value ([3]; 10% RB, 500 mg/kg, IL, N=5) of the same molecule?
**A.** 1

**Q.** And the “#CR + #PR/SD (%)” value ([3]; 10% RB, 500 mg/kg, IL, N=5)?
**A.** 2 (40)

**Q.** What about the “MST ± SEM” value ([3]; 10% RB, 500 mg/kg, IL, N=5) of the same molecule?
**A.** 52.2 ± 14.9 (3) days

**Q.** What about the systemic toxicity ([3]; all tumour treatments, IL) of the same molecule?
**A.** well-tolerated

**Q.** What about the “tolerability of intralesional injection” value ([3]; concentrations up to 10% (500 mg/kg)) of the same molecule?
**A.** well tolerated by all animals

**Q.** And the “residual RB in perilesional tissue” value ([3]; terminal sacrifice)?
**A.** no residual RB

**Q.** What about the “histology of tumor and peritumor tissue” value ([3]; terminal sacrifice, no dose-related trends) of the same molecule?
**A.** minimal perilesional inflammation and damage

**Q.** And the fatalities ([4]; SC, 2000 mg/kg study group (days 2 and 3), N=6)?
**A.** two fatalities

**Q.** What about the “swelling at the injection site” value ([4]; SC, 250 and 500 mg/kg) of the same molecule?
**A.** Swelling was also noted in the injection site for most animals

**Q.** What about the injection site effect ([4]; SC, 1250-2000 mg/kg) of the same molecule?
**A.** massive necrosis at the injection site

**Q.** And the “histology of injection site” value ([4]; SC, <500 mg RB kg body weight, days 4 and 15)?
**A.** focal necrosis at the injection site

**Q.** What about the “histological necrosis in normal tissue” value ([4]; SC, dosages up to 250 mg/kg at 1 days post administration) of the same molecule?
**A.** no histological evidence of necrosis

**Q.** And the “clinical outcome, local tolerance” value ([4]; SC, up to 500 mg RB/kg body weight (10%))?
**A.** mild side effects primarily limited to localized discoloration of the injection site; also recorded: only mild clinical effects

**Q.** What about the systemic effects ([4]; lower dosage groups (below 2000 mg/kg)) of the same molecule?
**A.** No systemic effects

**Q.** And the kidney lesions ([4]; one of the two fatalities in Group 6 (2000 mg/kg))?
**A.** mild degeneration of the kidney

**Q.** What about the liver lesions ([4]; the two fatalities in Group 6 (2000 mg/kg)) of the same molecule?
**A.** mild to moderate degeneration of the liver

**Q.** What about the tumors completely ablated (MCF-7 [ER−] tumors) of the same molecule?
**A.** [ER+] (4/4), MCF-7 [ER−] (4/4),

**Q.** And the tumors ablated (T-47D [ER−] tumors)?
**A.** (3/4).

**Q.** What about the tumor response [5] of the same molecule?
**A.** IL RB ablated spontaneous breast

**Q.** What about the “damage/necrosis to peripheral normal tissue” value (Murine Hepa I-6 tumors) of the same molecule?
**A.** peripheral normal tissue (0/8)

**Q.** And the “half-life of RB in the murine blood stream” value [6]?
**A.** approximately 30 min
